Structures can show the parent of a compound that is named as a salt.
What was measured:
[1] = tested on: histamine-induced lethality; test: Protecting activity against histamine-induced lethality (similar to Labelle-Tislow method), oral; format: in vivo, Hartley strain male and female guinea pigs; details: Cavia porcellus, 2 h, guinea pig, p.o. 1 h before histamine 1.1 mg/kg i.v., survival after two hours, Probit method, Example 9 as free base, others as fumarate
Description: 1. Protecting activity against histamine-induced lethality:
(3) Homochlorcyclizine hydrochloride (reference compound)
The test was carried out by a method similar to Labelle-Tislow method [cf. J. Pharmacol. Exp. Ther., 113, 72, 1955]. […] After one hour, histamine (1.1 mg/kg, in a physiological saline solution) was injected to the animals in cephalic vein. After two hours, the number of live guinea pigs was counted, and therefrom ED50 of the compounds was calculated according to Probit method.

in vivo = details: mouse, in vivo, po; mice, p.o., deaths within one week; Weil's method; Example 9 as free base, others as fumarate; read-out: Acute Toxicity LD50
From the text: (§1) 2. Acute toxicity (LD50):
(§2) The same compounds as used in the above protecting activity against histamine were used.

[2] = among compounds of U.S. Pat. No. 3,423,413; cited from earlier work
[3] = tested on: hexobarbital-induced sleep; test: Potentiating effect on hexobarbital-induced sleep in mice; format: in vivo; details: 25 mg/kg (p.o.)
From the text: Besides, the conventional antihistaminics have side-effect such as hypnotic activity.

mice = test: in vivo; details: p.o., deaths within one week, Weil's method, Example 9 as free base, others as fumarate, 10080 min
From the text: as §1, §2

| SMILES | ED50 [1] [mg/kg] | LD50 at 168 h (in vivo) [mg/kg] | anti-allergic activity [2] | potentiating effect on hexobarbital-induced sleep [3] | Acute Toxicity LD50 (mice) [mg/kg] |
| --- | --- | --- | --- | --- | --- |
| OCCN1CCN(Cc2nc3ccccc3n2Cc2ccc(F)cc2)CC1 [Compound A, 1-(4-fluorobenzyl)-2-[4-(2-hydroxyethyl)-1-piperazinyl]methylbenzimidazole, reference compound] | 0.026 | 440 | most potent anti-allergic activity |  |  |
| CCOCCn1c(CN2CCNCC2)nc2ccccc21 [Example 1, 1-(2-ethoxyethyl)-2-(1-piperazinyl)methylbenzimidazole] | 0.0033 | > 2000 |  |  |  |
| CCOCCn1c(CN2CCCNCC2)nc2ccccc21 [Example 2, 1-(2-ethoxyethyl)-2-(1-homopiperazinyl)methylbenzimidazole] | 0.014 | 1540 |  |  |  |
| CCOCCn1c(CN2CCN(C)CC2)nc2ccccc21 [Example 3, 1-(2-ethoxyethyl)-2-(4-methyl-1-piperazinyl)methylbenzimidazole] | 0.0026 | 789 |  |  |  |
| CCOCCn1c(CN2CCCN(C)CC2)nc2ccccc21 [Example 4, 1-(2-ethoxyethyl)-2-(4-methyl-1-homopiperazinyl)methylbenzimidazole] | 0.0092 | 990 |  |  |  |
| CCOCCn1c(CN2CCN(CC)CC2)nc2ccccc21 [Example 5, 1-(2-ethoxyethyl)-2-(4-ethyl-1-piperazinyl)methylbenzimidazole] | 0.0067 | 904 |  |  |  |
| CCCN1CCN(Cc2nc3ccccc3n2CCOCC)CC1 [Example 6, 1-(2-ethoxyethyl)-2-(4-n-propyl-1-piperazinyl)methylbenzimidazole] | 0.0095 | 303 |  |  |  |
| CCOCCn1c(CN2CCN(CCO)CC2)nc2ccccc21 [Example 7, 1-(2-ethoxyethyl)-2-[4-(2-hydroxyethyl)-1-piperazinyl]methylbenzimidazole] | 0.004 | > 2000 |  |  |  |
| CCCOCCn1c(CN2CCN(C)CC2)nc2ccccc21 [Example 8, 1-(2-n-propoxyethyl)-2-(4-methyl-1-piperazinyl)methylbenzimidazole] | 0.0059 | 1010 |  |  |  |
| C=COCCn1c(CN2CCN(C)CC2)nc2ccccc21 [Example 9, 1-(2-vinyloxyethyl)-2-(4-methyl-1-piperazinyl)methylbenzimidazole] | 0.0071 | 698 |  |  |  |
| C=CCOCCn1c(CN2CCN(C)CC2)nc2ccccc21 [Example 10, 1-(2-allyloxyethyl)-2-(4-methyl-1-piperazinyl)methylbenzimidazole] | 0.0059 | 657 |  |  |  |
| C#CCOCCn1c(CN2CCN(C)CC2)nc2ccccc21 [Example 11, 1-(2-propargyloxyethyl)-2-(4-methyl-1-piperazinyl)methylbenzimidazole] | 0.0023 | 891 |  |  |  |
| C#CCOCCn1c(CN2CCCN(C)CC2)nc2ccccc21 [Example 12, 1-(2-propargyloxyethyl)-2-(4-methyl-1-homopiperazinyl)methylbenzimidazole] | 0.017 | 524 |  |  |  |
| CN1CCCN(C(c2ccccc2)c2ccc(Cl)cc2)CC1 (stereo not drawn) [Homochlorcyclizine hydrochloride, reference compound] | 0.26 |  |  | showed remarkable potentiating effect | 382 |

— US4603130A, “1-substituted-2-(piperazinyl or homopiperazinyl)-benzimidazole compounds and pharmaceutical composition” (Kanebo, Ltd., priority 1983, dated 1986)
